From PubChem BioAssay AID1963838 (Molecular Pharmacology Branch, DTP, NCI, 2024)
Several values for one entry are separate records, joined by “and”; a condition that tells them apart may be missing. Equal values may be shown once.

Test system: 855422-203-R-J1-PDC complex spheroid viability
Experiment: Anticancer human tumor 855422-203-R-J1-PDC patient-derived bladder carcinoma cell line growth inhibition [POLQ]
Settings: for viability, T/C: stronger effect = lower value
Method: Multicellular complex tumor spheroid response to Polymerase (POL) inhibitors (novobiocin, ART-558, RP6685) in combination with a variety of drugs and investigational agents in selected tumor cell lines
The POL inhibitors (novobiocin, ART-558, and RP6685) were evaluated both individually and in combination with standard of care and investigational anticancer small molecules within a complex spheroid model of solid tumors. . Complex spheroids include a stromal component modeled by human endothelial cells (HUVEC) and fibroblasts modeled by human mesenchymal stem cells (MSCs). The concentration ranges selected for each drug and investigational agent were based upon clinically achievable concentrations if the clinical Cmax of the agent was known.
Compounds. The drugs and investigational agents: novobiocin (NSC847541), ART-558 (NSC835418), RP-6685 (NSC848927), peposertib (NSC802822), ceralasertib (NSC780249), elimusertib (NSC800525), camonsertib (NSC841442), AZD-1390 (NSC803789), olaparib (NSC753686), talazoparib (NSC767125), rucaparib (NSC756644), sotorasib (NSC818433), MRTX-1133 (NSC836407), SN-38 (NSC673596), topotecan (NSC609699), epotoside (NSC141540), doxorubicin (NSC123127), gemcitabine (NSC613327), 5-fluorouracil (NSC19893), paclitaxel (NSC125973), vemurafenib (NSC761431), MSA-2 (NSC828583), SN-011 (NSC837082), adavosertib (NSC754352), prexasertib (NSC758257), carboplatin (NSC241240) and oxaliplatin (NSC266046), were obtained from the National Cancer Institute (NCI) Developmental Therapeutics Program Chemical Repository (21). The FDA-approved anticancer drug set is available from the Developmental Therapeutics Program at https://dtp.cancer.gov/organization/dscb/obtaining/. […] The stock solutions were prepared in dimethyl sulfoxide (DMSO, Sigma-Aldrich, St. Louis, MO, cat. D2650), except for the platinum compounds which were prepared in saline (Quality Biological, Gaithersburg, MD, cat. 114-055-101), at 800-fold the tested concentration and stored at -70 degrees C prior to their use. All drugs and investigational agents were tested over a range starting from a high concentration at or near the clinical Cmax and decreasing in half-log increments. If the clinical Cmax for an agent had not been determined, the highest concentration tested was 10 microM, except for SN-38, which was tested at a high concentration of 1 microM.
Cell Culture. All cells were maintained in an incubator at 37 degrees C and 5% CO2 with 95% humidity. The PDC lines were cultured according to standard operating procedures established by the NCI PDMR (https://pdmr.cancer.gov). Table 3 of the manuscript, lists the cell lines along with the number of the three cell types plated to form the mct-spheroids and media for tumor cell growth. After thawing, all PDC lines, except 997537-175-T-J1-PDC and 415267-285-R-J2-PDC, were cultured in Matrigel-coated flasks prepared with a working solution of 1X Ham's F-12 nutrient mix, without supplementation (Thermo Fisher Scientific, cat. 11765054), 100 U/mL penicillin-streptomycin (Thermo Fisher Scientific, cat. 15140122), and 2.5% Matrigel (Corning Inc., Corning, NY, cat. 354248) for the first three passages. The two PDC lines 997537-175-T-J1-PDC and 415267-285-R-J2-PDC were cultured on uncoated flasks. The 857933-349-R-J2-PDC line was cultured in 6C/Colon 1B media containing advanced DMEM/F-12 (Thermo Fisher Scientific, cat. 12634028), 10 mM HEPES (Thermo Fisher Scientific, cat. 15630080), 1X GlutaMAX supplement (Thermo Fisher Scientific, cat. 35050061), 0.1 mg/mL primocin (InvivoGen, San Diego, CA, cat. ant-pm-2), 10% defined fetal bovine serum, heat inactivated (HyClone Laboratories Inc., Logan, UT, cat. SH30070.03HI), 50% L-WRN conditioned media (ATCC, cat. CRL-3276), 1.25 mM N-Acetyl-L-cysteine (Sigma-Aldrich, cat. A9165), 10 mM nicotinamide (Sigma-Aldrich, cat. N0636), 1X B-27 supplement (Thermo Fisher Scientific, cat. 17504044), 1X N-2 supplement (Thermo Fisher Scientific, cat. […]

[1] = curve of first compound, second compound 0.0316 µM
[2] = curve of first compound, second compound 0.1 µM
[3] = curve of first compound, second compound 0.316 µM
[4] = curve of first compound, second compound 1 µM
[5] = curve of first compound, second compound 3.16 µM
[6] = curve of first compound, second compound 10 µM
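Also: spheroids exposed to compounds for seven days before readout.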

SMILES: CC1COCCN1c1cc(-c2ccnn2C)c2ccnc(-c3ccn[nH]3)c2n1 (stereo not drawn)
- viability, T/C (compound 0.0316 µM): 99.3% and 108% and 116%
- viability, T/C (compound 0.1 µM): 70.3% and 81.8% and 110%
- viability, T/C (compound 0.316 µM): 23.4% and 22.9% and 30.8%
- viability, T/C (compound 1 µM): 11.2% and 11% and 16.2%
- viability, T/C (compound 3.16 µM): 8.42% and 8.52% and 10.7%
- viability, T/C (compound 10 µM): 6.55% and 7.74% and 10.3%
- IC50 (curve of compound): 165 nM and 186 nM and 239 nM

SMILES: CC(C)n1c(=O)n(C)c2cnc3cc(F)c(-c4ccc(OCCCN5CCCCC5)nc4)cc3c21 + Nc1ccc(C#CCN(C(=O)Cc2ncc(C(F)(F)F)cc2C(F)(F)F)c2ccc(F)cc2)nn1
- IC50 [1]: > 10000 nM
- IC50 [2]: > 10000 nM
- IC50 [3]: > 10000 nM
- IC50 [4]: > 10000 nM
- IC50 [5]: > 10000 nM
- IC50 [6]: > 10000 nM
- viability, T/C (second compound 0.0316 µM, first compound 0.0316 µM): 100%
- viability, T/C (second compound 0.0316 µM, first compound 0.1 µM): 123%
- viability, T/C (second compound 0.0316 µM, first compound 0.316 µM): 110%
- viability, T/C (second compound 0.0316 µM, first compound 1 µM): 94.2%
- viability, T/C (second compound 0.0316 µM, first compound 3.16 µM): 99.9%
- viability, T/C (second compound 0.0316 µM, first compound 10 µM): 107%
- viability, T/C (second compound 0.1 µM, first compound 0.0316 µM): 99.4%
- viability, T/C (second compound 0.1 µM, first compound 0.1 µM): 140%
- viability, T/C (second compound 0.1 µM, first compound 0.316 µM): 97.2%
- viability, T/C (second compound 0.1 µM, first compound 1 µM): 94.4%
- viability, T/C (second compound 0.1 µM, first compound 3.16 µM): 100%
- viability, T/C (second compound 0.1 µM, first compound 10 µM): 93.5%
- viability, T/C (second compound 0.316 µM, first compound 0.0316 µM): 96.5%
- viability, T/C (second compound 0.316 µM, first compound 0.1 µM): 128%
- viability, T/C (second compound 0.316 µM, first compound 0.316 µM): 96.3%
- viability, T/C (second compound 0.316 µM, first compound 1 µM): 99.3%
- viability, T/C (second compound 0.316 µM, first compound 3.16 µM): 97%
- viability, T/C (second compound 0.316 µM, first compound 10 µM): 96.1%
- viability, T/C (second compound 1 µM, first compound 0.0316 µM): 91.8%
- viability, T/C (second compound 1 µM, first compound 0.1 µM): 120%
- viability, T/C (second compound 1 µM, first compound 0.316 µM): 95.1%
- viability, T/C (second compound 1 µM, first compound 1 µM): 99.2%
- viability, T/C (second compound 1 µM, first compound 3.16 µM): 101%
- viability, T/C (second compound 1 µM, first compound 10 µM): 91.3%
- viability, T/C (second compound 3.16 µM, first compound 0.0316 µM): 97.9%
- viability, T/C (second compound 3.16 µM, first compound 0.1 µM): 148%
- viability, T/C (second compound 3.16 µM, first compound 0.316 µM): 98%
- viability, T/C (second compound 3.16 µM, first compound 1 µM): 106%
- viability, T/C (second compound 3.16 µM, first compound 3.16 µM): 103%
- viability, T/C (second compound 3.16 µM, first compound 10 µM): 92.1%
- viability, T/C (second compound 10 µM, first compound 0.0316 µM): 104%
- viability, T/C (second compound 10 µM, first compound 0.1 µM): 101%
- viability, T/C (second compound 10 µM, first compound 0.316 µM): 91.3%
- viability, T/C (second compound 10 µM, first compound 1 µM): 100%
- viability, T/C (second compound 10 µM, first compound 3.16 µM): 101%
- viability, T/C (second compound 10 µM, first compound 10 µM): 82.8%

SMILES: CC(=O)O[C@H]1C(=O)[C@@]2(C)[C@H]([C@H](OC(=O)c3ccccc3)[C@]3(O)C[C@H](OC(=O)[C@H](O)[C@@H](NC(=O)c4ccccc4)c4ccccc4)C(C)=C1C3(C)C)[C@]1(OC(C)=O)CO[C@@H]1C[C@@H]2O + COC1C(OC(N)=O)C(O)C(Oc2ccc3c(O)c(NC(=O)c4ccc(O)c(CC=C(C)C)c4)c(=O)oc3c2C)OC1(C)C
- IC50 [1]: < 9.49 nM
- IC50 [2]: < 9.49 nM
- IC50 [3]: < 9.49 nM
- IC50 [4]: < 9.49 nM
- IC50 [5]: < 9.49 nM
- IC50 [6]: < 9.49 nM
- viability, T/C (second compound 0.0316 µM, first compound 0.00949 µM): 5.68%
- viability, T/C (second compound 0.0316 µM, first compound 0.03 µM): 5.82%
- viability, T/C (second compound 0.0316 µM, first compound 0.0949 µM): 5%
- viability, T/C (second compound 0.0316 µM, first compound 0.3 µM): 6.46%
- viability, T/C (second compound 0.0316 µM, first compound 0.949 µM): 5.84%
- viability, T/C (second compound 0.0316 µM, first compound 3 µM): 5.17%
- viability, T/C (second compound 0.1 µM, first compound 0.00949 µM): 5.77%
- viability, T/C (second compound 0.1 µM, first compound 0.03 µM): 6.65%
- viability, T/C (second compound 0.1 µM, first compound 0.0949 µM): 5.15%
- viability, T/C (second compound 0.1 µM, first compound 0.3 µM): 4.93%
- viability, T/C (second compound 0.1 µM, first compound 0.949 µM): 5.98%
- viability, T/C (second compound 0.1 µM, first compound 3 µM): 4.74%
- viability, T/C (second compound 0.316 µM, first compound 0.00949 µM): 8.12%
- viability, T/C (second compound 0.316 µM, first compound 0.03 µM): 6.43%
- viability, T/C (second compound 0.316 µM, first compound 0.0949 µM): 5.94%
- viability, T/C (second compound 0.316 µM, first compound 0.3 µM): 4.73%
- viability, T/C (second compound 0.316 µM, first compound 0.949 µM): 4.96%
- viability, T/C (second compound 0.316 µM, first compound 3 µM): 5.68%
- viability, T/C (second compound 1 µM, first compound 0.00949 µM): 7.33%
- viability, T/C (second compound 1 µM, first compound 0.03 µM): 6.18%
- viability, T/C (second compound 1 µM, first compound 0.0949 µM): 5.96%
- viability, T/C (second compound 1 µM, first compound 0.3 µM): 5.56%
- viability, T/C (second compound 1 µM, first compound 0.949 µM): 6.11%
- viability, T/C (second compound 1 µM, first compound 3 µM): 6.43%
- viability, T/C (second compound 3.16 µM, first compound 0.00949 µM): 6.84%
- viability, T/C (second compound 3.16 µM, first compound 0.03 µM): 6.73%
- viability, T/C (second compound 3.16 µM, first compound 0.0949 µM): 5.34%
- viability, T/C (second compound 3.16 µM, first compound 0.3 µM): 5.02%
- viability, T/C (second compound 3.16 µM, first compound 0.949 µM): 5.62%
- viability, T/C (second compound 3.16 µM, first compound 3 µM): 6.32%
- viability, T/C (second compound 10 µM, first compound 0.00949 µM): 7.25%
- viability, T/C (second compound 10 µM, first compound 0.03 µM): 6.33%
- viability, T/C (second compound 10 µM, first compound 0.0949 µM): 5.51%
- viability, T/C (second compound 10 µM, first compound 0.3 µM): 5.78%
- viability, T/C (second compound 10 µM, first compound 0.949 µM): 5.59%
- viability, T/C (second compound 10 µM, first compound 3 µM): 6.4%

SMILES: O=C(c1cc(Cc2n[nH]c(=O)c3ccccc23)ccc1F)N1CCN(C(=O)C2CC2)CC1
- viability, T/C (compound 0.0316 µM): 109% and 103% and 94%
- viability, T/C (compound 0.1 µM): 107% and 106% and 112%
- viability, T/C (compound 0.316 µM): 92.1% and 100% and 112%
- viability, T/C (compound 1 µM): 108% and 103% and 98.3%
- viability, T/C (compound 3.16 µM): 106% and 98.1% and 124%
- viability, T/C (compound 10 µM): 82.5% and 70% and 121%
- IC50 (curve of compound): > 10000 nM
